Reference: patent US20210403864A1, “METHODS AND COMPOSITIONS FOR TREATING ACTIVATED G-ALPHA Q MUTANT CANCERS OR MELANOCYTIC MALIGNANCIES” (Memorial Sloan Kettering Cancer Center, priority 2018, published 2021)

Key:
Type in all cases: cell-based, human
CYSLTR2^L129Q = assay: IP1 accumulation assay in transiently transfected HEK293T cells; conditions: 24-hour treatment
Protocol: Cells were treated with YM at increasing doses for 24 hours. Error bars, s.e.m. from three biological replicates, each with three technical replicates.
Exogenous Gene Expression. HEK293T cells were transiently transfected to express vectors containing synthetic CYSLTR2 (Moore A R, et al., Nat Genet. 48(6):675 (2016)) and GNAQ. Genewiz was used to codon optimize these sequences for expression in mammalian cells. The human GNAQ α-subunit plasmids encoding for GNAQ mutants Q209L, R183Q and G48V were generated by Quick Change (Agilent Technologies, Santa Clara, Calif.) site-directed mutagenesis. […]
IP1 Accumulation Assay. IP1 concentrations in GNAQ-transfected HEK293T cells, GNAQ-expressing melan-a cells and uveal melanoma cells was measured using a competitive homogenous time resolved fluorescence (HTRF) assay (CisBio, Bedford, Mass.). […] Following incubation, cells were lysed by adding 3 μL/well of d2-labeled IP1 analogue as the fluorescence acceptor and the Terbium cryptate-labeled anti-IP1 mAb as the fluorescence donor, diluted in the kit-supplied lysis buffer. The plates were incubated overnight at RT and time-resolved fluorescence signals were read using the BioTek Synergy NEO plate reader (BioTek Instruments, Winooski, Vt.) at 620 nm and 655 nm. […] Dose-response curves and bar graphs were analyzed using GraphPad Prism 7.0 software. […]

[1] = test system: A375 cells (BRAF^V600E cutaneous melanoma); assay: Cell proliferation dose response, CellTiter-glo 2.0; conditions: 5 days
Protocol: (§1) Data are expressed as the percentage RLU relative to that observed with vehicle. Error bars, s.e.m. from triplicate samples.
(§2) Cell Culture and in vitro analysis. Mutation dependent melan-a cells were generated by transducing cells with cDNAs in MSCV-PURO (retrovirus) and then selecting cells with puromycin (1 μg/ml) for two days. TPA (Sigma-Aldrich, St. Louis, Mo.) was then withdrawn from cultures. Cells with activating mutations (CYSLTR2^L129Q, GNAQ^G48V/R183Q/Q209L, KRAS^G12V, and BRAF^V600E) continued to proliferate over several passages (>2 weeks) and were then validated with qRT-PCR and immunoblots. Vector and WT controls were unable to maintain proliferation after a couple passages upon TPA withdrawal. All cells were cultured in media containing 10% FBS, L-glutamine ([…]), penicillin (100 U/ml), streptomycin (100 μg/ml). Melan-a cells provided by D. Bennett, St. George's Hospital, University of London (Johnson C P, et al., PLoS One. 12(6):1-17 (2017)), were cultured in RPMI supplemented with 200 nM TPA unless otherwise noted. HEK293T (from ATCC, Manassas, Va.) cells were cultured in DMEM-Q and UVM cells were cultured in RPMI. All cells tested negative for mycoplasma. Cell growth assays and YM dose response curves were assayed using CellTiter-glo 2.0 (Promega, Madison, Wis.) at given time points or after five days of incubation with YM and readout on a Glomax Luminometer (Promega, Madison, Wis.). IC50 values were calculated using Prism 7.0 software. Growth assays were compared to day 1 readings and dose response curves were compared to vehicle. Data shown is representative of at least three independent experiments with at least three technical replicates. Dose-response curves and growth assays were analyzed using GraphPad Prism 7.0 software.

A549 cells (KRAS^G12S) = assay: as above; conditions: 5 days
Protocol: as §1, §2

Mel202 cells = assay: as above; conditions: 5 days, approximate
Protocol: as §1, §2

Mel270 cells = assay: as above; conditions: 5 days, approximate
Protocol: as §1, §2

Mel285 cells = assay: as above; conditions: 5 days, UVM line lacking GNAQ/11 mutations
Protocol: as §1, §2

Mel290 cells = assay: as above; conditions: 5 days, UVM line lacking GNAQ/11 mutations
Protocol: as §1, §2

OMM1.3 cells = assay: as above; conditions: 5 days, approximate
Protocol: as §1, §2

[2] = test system: SK-MEL-2 cells (NRAS^Q61R); assay: as above; conditions: 5 days
Protocol: as §1, §2

[3] = test system: BRAF-mutant A375 cutaneous melanoma cells; assay: Colony formation assay; conditions: 1000 cells per well, until colonies visible in vehicle plates
Protocol: (§3) To evaluate the effect of YM-254890 and trametinib in vitro, colony formation assays were performed. 1000 cells per well of the following cell lines were plated: (1) BRAF-mutant A375 cutaneous melanoma cells, (2) Gq-mutant Mel202 cells, and (3) Gq-mutant OMIM1.3 uveal melanoma cells. The cells were then treated with a negative vehicle control, YM-254890, trametinib, or both. Cells were allowed to grow until visible colonies formed in the vehicle-treated plates.

Gq-mutant Mel202 cells = assay: Colony formation assay; conditions: 1000 cells per well, until colonies visible in vehicle plates
Protocol: as §3

[4] = test system: Gq-mutant OMIM1.3 uveal melanoma cells; assay: Colony formation assay; conditions: 1000 cells per well, until colonies visible in vehicle plates
Protocol: as §3

Substance: YM-254890
- potency of inhibition of IP1 accumulation (CYSLTR2^L129Q): subnanomolar potency
- sensitivity of proliferation to YM [1]: resistant
- sensitivity of proliferation to YM (A549 cells (KRAS^G12S)): resistant
- IC50 (Mel202 cells): ~100 nM
- IC50 (Mel270 cells): ~100 nM
- sensitivity of proliferation to YM (Mel285 cells): resistant
- sensitivity of proliferation to YM (Mel290 cells): resistant
- IC50 (OMM1.3 cells): ~100 nM
- sensitivity of proliferation to YM [2]: resistant
- colony formation [3]: resistant
- colony formation (Gq-mutant Mel202 cells): moderate sensitivity
- colony formation [4]: moderate sensitivity
